Assays:
JAK1 = JAK1 (Homo sapiens (Human), UniProt P23458); assay: Jak Biochemical HTRF Assay, JAK1; conditions: HTRF biochemical assay, GST-tagged catalytic domain; top concentration tested […]; read-out: JAK1 IC50
Text: (§1) Jak Biochemical HTRF Assay Protocol
(§2) Subsequent reagent additions employed an Agilent Bravo.

JAK2 = JAK2 (Homo sapiens (Human), UniProt O60674); assay: Jak Biochemical HTRF Assay, JAK2; conditions: HTRF biochemical assay, GST-tagged catalytic domain; top concentration tested […]
Text: as §1, §2

JAK2, sequence (O60674 849-1124): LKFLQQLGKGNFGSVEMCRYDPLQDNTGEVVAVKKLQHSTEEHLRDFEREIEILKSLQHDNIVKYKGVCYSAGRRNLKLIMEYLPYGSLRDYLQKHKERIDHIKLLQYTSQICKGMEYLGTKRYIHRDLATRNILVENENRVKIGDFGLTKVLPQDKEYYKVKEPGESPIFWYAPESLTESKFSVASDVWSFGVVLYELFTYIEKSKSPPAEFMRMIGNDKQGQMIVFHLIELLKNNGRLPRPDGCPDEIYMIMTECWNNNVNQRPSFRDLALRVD
JAK1, sequence (P23458 875-1153): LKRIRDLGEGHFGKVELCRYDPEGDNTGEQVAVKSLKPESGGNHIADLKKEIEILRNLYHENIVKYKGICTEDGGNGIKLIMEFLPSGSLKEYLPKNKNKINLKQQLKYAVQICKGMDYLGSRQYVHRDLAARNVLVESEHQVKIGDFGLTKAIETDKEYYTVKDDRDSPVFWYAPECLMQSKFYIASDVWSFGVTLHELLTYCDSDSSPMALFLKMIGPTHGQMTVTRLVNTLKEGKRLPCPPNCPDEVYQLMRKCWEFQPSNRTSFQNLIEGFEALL

| Compound | IC50 (JAK1) [nM] | IC50 (JAK2) [nM] |
| --- | --- | --- |
| N#CCC1(n2cc(C(N)=O)c(Nc3ccccc3)n2)CCN(S(=O)(=O)Cc2ccccc2)CC1 [Example 37-8, 1-[1-(benzylsulfonyl)-4-(cyanomethyl)piperidin-4-yl]-3-(phenylamino)-1H-pyrazole-4-carboxamide] | 15 | 35 |
| N#CCC1(n2cc(C(N)=O)c(Nc3ccccc3)n2)CCN(S(=O)(=O)c2ccc(-c3ccccc3)cc2)CC1 [Example 37-14, 1-[1-(biphenyl-4-ylsulfonyl)-4-(cyanomethyl)piperidin-4-yl]-3-(phenylamino)-1H-pyrazole-4-carboxamide] | 5 | 24 |
| CS(=O)(=O)N1CC(CC#N)(n2cc(C(N)=O)c(Nc3ccccc3)n2)C1 [Example 37-16, 1-[3-(cyanomethyl)-1-(methylsulfonyl)azetidin-3-yl]-3-(phenylamino)-1H-pyrazole-4-carboxamide] | 79 | 366 |
| N#CCC1(n2cc(C(N)=O)c(Nc3ccccc3)n2)CN(S(=O)(=O)c2ccco2)C1 [Example 37-17, 1-[3-(cyanomethyl)-1-(furan-2-ylsulfonyl)azetidin-3-yl]-3-(phenylamino)-1H-pyrazole-4-carboxamide] | 95 | 247 |
| N#CCC1(n2cc(C(N)=O)c(Nc3ccccc3)n2)CN(S(=O)(=O)C(F)(F)F)C1 [Example 37-18, 1-{3-(cyanomethyl)-1-[(trifluoromethyl)sulfonyl]azetidin-3-yl}-3-(phenylamino)-1H-pyrazole-4-carboxamide] | 159 | 585 |
| N#CCC1(n2cc(C(N)=O)c(Nc3ccccc3)n2)CN(S(=O)(=O)c2ccccc2)C1 [Example 37-19, 1-[3-(cyanomethyl)-1-(phenylsulfonyl)azetidin-3-yl]-3-(phenylamino)-1H-pyrazole-4-carboxamide] | 138 | 463 |
| N#CCC1(n2cc(C(N)=O)c(Nc3ccccc3)n2)CN(S(=O)(=O)Cc2ccccc2)C1 [Example 37-20, 1-[1-(benzylsulfonyl)-3-(cyanomethyl)azetidin-3-yl]-3-(phenylamino)-1H-pyrazole-4-carboxamide] | 105 | 521 |
| N#CCC1(n2cc(C(N)=O)c(Nc3ccccc3)n2)CN(C(=O)NC2CCCCC2)C1 [Example 38-2, 1-[3-(cyanomethyl)-1-(cyclohexylcarbamoyl)azetidin-3-yl]-3-(phenylamino)-1H-pyrazole-4-carboxamide] | 20 | 628 |
| CC(C)NC(=O)N1CC(CC#N)(n2cc(C(N)=O)c(Nc3ccccc3)n2)C1 [Example 38-3, 1-{3-(cyanomethyl)-1-[(1-methylethyl)carbamoyl]azetidin-3-yl}-3-(phenylamino)-1H-pyrazole-4-carboxamide] | 10 | 185 |
| Cc1ccc(NC(=O)N2CC(CC#N)(n3cc(C(N)=O)c(Nc4ccccc4)n3)C2)cc1C [Example 38-4, 1-{3-(cyanomethyl)-1-[(3,4-dimethylphenyl)carbamoyl]azetidin-3-yl}-3-(phenylamino)-1H-pyrazole-4-carboxamide] | 12 | 191 |
| CC(C)c1ccc(NC(=O)N2CC(CC#N)(n3cc(C(N)=O)c(Nc4ccccc4)n3)C2)cc1 [Example 38-7] | 5 | 80 |
| CC(C)c1ccccc1NC(=O)N1CC(CC#N)(n2cc(C(N)=O)c(Nc3ccccc3)n2)C1 [Example 38-8, 1-[3-(cyanomethyl)-1-{[2-(1-methylethyl)phenyl]carbamoyl}azetidin-3-yl]-3-(phenylamino)-1H-pyrazole-4-carboxamide] | 14 | 428 |
| N#CCC1(n2cc(C(N)=O)c(Nc3ccccc3)n2)CN(C(=O)Nc2cc(F)ccc2F)C1 [Example 38-10, 1-{3-(cyanomethyl)-1-[(2,5-difluorophenyl)carbamoyl]azetidin-3-yl}-3-(phenylamino)-1H-pyrazole-4-carboxamide] | 5 | 158 |
| Cc1cccc(NC(=O)N2CC(CC#N)(n3cc(C(N)=O)c(Nc4ccccc4)n3)C2)c1 [Example 38-11, 1-{3-(cyanomethyl)-1-[(3-methylphenyl)carbamoyl]azetidin-3-yl}-3-(phenylamino)-1H-pyrazole-4-carboxamide] | 4 | 78 |
| Cc1cc(C)c(NC(=O)N2CC(CC#N)(n3cc(C(N)=O)c(Nc4ccccc4)n3)C2)c(C)c1 [Example 38-12, 1-{3-(cyanomethyl)-1-[(2,4,6-trimethylphenyl)carbamoyl]azetidin-3-yl}-3-(phenylamino)-1H-pyrazole-4-carboxamide] | 128 | 1440 |
| Cc1ccc(NC(=O)N2CC(CC#N)(n3cc(C(N)=O)c(Nc4ccccc4)n3)C2)cc1Cl [Example 38-13, 1-{1-[(3-chloro-4-methylphenyl)carbamoyl]-3-(cyanomethyl)azetidin-3-yl}-3-(phenylamino)-1H-pyrazole-4-carboxamide] | 21 | 339 |

More lines, now with the values ahead:

| IC50 (JAK1) [nM] | IC50 (JAK2) [nM] | Compound |
| --- | --- | --- |
| 0.6 | 10 | CS(=O)(=O)c1ccc(Nc2nn(C3(CC#N)CCN(C(=O)CC#N)CC3)cc2C(N)=O)cc1 [Example 36-2, 1-[1-(cyanoacetyl)-4-(cyanomethyl)piperidin-4-yl]-3-{[4-(methylsulfonyl)phenyl]amino}-1H-pyrazole-4-carboxamide] |
| 2 | 13 | CC(C)S(=O)(=O)N1CCC(CC#N)(n2cc(C(N)=O)c(Nc3ccccc3)n2)CC1 [Example 37-1, 1-[4-(Cyanomethyl)-1-(isopropylsulfonyl)piperidin-4-yl]-3-(phenylamino)-1H-pyrazole-4-carboxamide] |
| 0.4 | 3 | CS(=O)(=O)N1CCC(CC#N)(n2cc(C(N)=O)c(Nc3ccccc3)n2)CC1 [Example 37-2, 1-[4-(cyanomethyl)-1-(methylsulfonyl)piperidin-4-yl]-3-(phenylamino)-1H-pyrazole-4-carboxamide] |
| 1 | 12 | CCS(=O)(=O)N1CCC(CC#N)(n2cc(C(N)=O)c(Nc3ccccc3)n2)CC1 [Example 37-3, 1-[4-(cyanomethyl)-1-(ethylsulfonyl)piperidin-4-yl]-3-(phenylamino)-1H-pyrazole-4-carboxamide] |
| 0.6 | 2 | N#CCC1(n2cc(C(N)=O)c(Nc3ccccc3)n2)CCN(S(=O)(=O)c2ccco2)CC1 [Example 37-4, 1-[4-(cyanomethyl)-1-(furan-2-ylsulfonyl)piperidin-4-yl]-3-(phenylamino)-1H-pyrazole-4-carboxamide] |
| 0.7 | 6 | N#CCC1(n2cc(C(N)=O)c(Nc3ccccc3)n2)CCN(S(=O)(=O)C(F)(F)F)CC1 [Example 37-5, 1-{4-(cyanomethyl)-1-[(trifluoromethyl)sulfonyl]piperidin-4-yl}-3-(phenylamino)-1H-pyrazole-4-carboxamide] |
| 0.3 | 1 | N#CCC1(n2cc(C(N)=O)c(Nc3ccccc3)n2)CCN(S(=O)(=O)c2ccccc2)CC1 [Example 37-6, 1-[4-(cyanomethyl)-1-(phenylsulfonyl)piperidin-4-yl]-3-(phenylamino)-1H-pyrazole-4-carboxamide] |
| 2 | 9 | Cn1cnc(S(=O)(=O)N2CCC(CC#N)(n3cc(C(N)=O)c(Nc4ccccc4)n3)CC2)c1 [Example 37-7, 1-{4-(cyanomethyl)-1-[(1-methyl-1H-imidazol-4-yl)sulfonyl]piperidin-4-yl}-3-(phenylamino)-1H-pyrazole-4-carboxamide] |
| 0.8 | 3 | COc1ccc(S(=O)(=O)N2CCC(CC#N)(n3cc(C(N)=O)c(Nc4ccccc4)n3)CC2)cc1 [Example 37-9, 1-{4-(cyanomethyl)-1-[(4-methoxyphenyl)sulfonyl]piperidin-4-yl}-3-(phenylamino)-1H-pyrazole-4-carboxamide] |
| 0.7 | 3 | COc1cccc(S(=O)(=O)N2CCC(CC#N)(n3cc(C(N)=O)c(Nc4ccccc4)n3)CC2)c1 [Example 37-10, 1-{4-(cyanomethyl)-1-[(3-methoxyphenyl)sulfonyl]piperidin-4-yl}-3-(phenylamino)-1H-pyrazole-4-carboxamide] |
| 0.6 | 2 | N#CCC1(n2cc(C(N)=O)c(Nc3ccccc3)n2)CCN(S(=O)(=O)c2cccc(Cl)c2)CC1 [Example 37-11, 1-{1-[(3-chlorophenyl)sulfonyl]-4-(cyanomethyl)piperidin-4-yl}-3-(phenylamino)-1H-pyrazole-4-carboxamide] |
| 3 | 9 | N#CCC1(n2cc(C(N)=O)c(Nc3ccccc3)n2)CCN(S(=O)(=O)c2ccccc2Cl)CC1 [Example 37-12, 1-{1-[(2-chlorophenyl)sulfonyl]-4-(cyanomethyl)piperidin-4-yl}-3-(phenylamino)-1H-pyrazole-4-carboxamide] |
| 0.4 | 3 | N#CCC1(n2cc(C(N)=O)c(Nc3ccccc3)n2)CCN(S(=O)(=O)C2CC2)CC1 [Example 37-15, 1-[4-(cyanomethyl)-1-(cyclopropylsulfonyl)piperidin-4-yl]-3-(phenylamino)-1H-pyrazole-4-carboxamide] |
| 3 | 68 | N#CCC1(n2cc(C(N)=O)c(Nc3ccccc3)n2)CN(C(=O)Nc2cccc(F)c2)C1 [Example 38-1, 1-{3-(Cyanomethyl)-1-[(3-fluorophenyl)carbamoyl]azetidin-3-yl}-3-(phenylamino)-1H pyrazole-4-carboxamide] |
| 4 | 214 | CCCCNC(=O)N1CC(CC#N)(n2cc(C(N)=O)c(Nc3ccccc3)n2)C1 [Example 38-5, 1-[1-(butylcarbamoyl)-3-(cyanomethyl)azetidin-3-yl]-3-(phenylamino)-1H-pyrazole-4-carboxamide] |
| 2 | 69 | Cc1ccc(NC(=O)N2CC(CC#N)(n3cc(C(N)=O)c(Nc4ccccc4)n3)C2)cc1 [Example 38-6, 1-{3-(cyanomethyl)-1-[(4-methylphenyl)carbamoyl]azetidin-3-yl}-3-(phenylamino)-1H-pyrazole-4-carboxamide] |

— US9328099B2, “Cyanomethylpyrazole carboxamides as janus kinase inhibitors” (Merck Sharp & Dohme Corp., priority 2011, dated 2016)
